Earlier results on one compound are cited in US11359044B2, “Preparation and application of novel multifunctional nanocomposite material with new photosensitizer” (priority 2018, dated 2022).

For the series the following is noted: in DMSO, used as control.

Regarding `[Zn+2].c1ccc2c(c1)-c1nc-2nc2[n-]c(nc3nc([n-]c4nc(n1)-c1ccccc1-4)-c1ccccc1-3)c1ccccc21` [ZnPc, zinc phthalocyanine], the singlet oxygen yield is given as 0.67.
